For one assay, the target named is T1, ENO1 (Homo sapiens, UniProt P06733).
T1 construct: expressed in transfected cells; host or cells: D423-MG (ENO1-deleted human glioma) with ectopic ENO1
The experiment in a line: Enolase activity, NADH-linked PK/LDH coupled fluorometric assay in native lysates of human cancer cells overexpressing ENO1. The conditions noted are these: for IC50: lysates of D423 cells overexpressing ENO1. The class given is biochemical. The protocol:
We then determined Enolase inhibitory activity of (3R)-P1 and (3S)-P2 derived MethylSF2312 in native lysates from human cancer cells and E. coli overexpressing ENO1 and ENO2.
(§1) Native lysates of human cell lines were prepared using 20 mM Tris HCl, 1 mM EDTA, and 1 mM β-mercaptoethanol at pH 7.4 as described previously. Enolase activity was measured using two different methods, either by a fluorometric NADH-linked assay or a direct spectrophotometric assay via formation of PEP. In the fluorescent assay, enolase activity was measured via NADH oxidation in a pyruvate kinase–lactate dehydrogenase coupled assay as previously described. The assay is conducted in 10 mM KCl, 5 mM MgSO4, 100 mM triethanolamine at pH 7.4, with 400 µM NADH and 2 mM ADP. 2-Phosphoglycerate (2-PGA), pyruvate kinase (PK) and lactate dehydrogenase (LDH) are provided in excess, with the conversion of 2-PGA to PEP by enolase being rate limiting. PEP (with ADP) is a substrate of PK; pyruvate formed by this reaction is linked to NADH oxidation by LDH. Enolase activity is determined by measuring oxidation of NADH fluorescently by excitation at 340 nm and emission at 460 nm. The substrate concentration, if not otherwise indicated, was 5 mM 2-PGA. Fluorescence was measured using the Omega Fluorescence Plate Reader (BMG Labtech). Enolase activity was measured in native lysates of E. coli. Overnight grown saturated E. coli (DH5α) liquid culture was pelleted by centrifugation, washed and resuspended in 50 µL of lysis buffer which contains 150 mM NaCl, 50 mM Tris, 1mM EDTA, 2 mM DTT and 0.025% sodium azide. PMSF (10 mM stock solution) was then added to the lysate to make the final concentration 1 mM with 1% sodium deoxycholate. The suspension was incubated at 4 °C with constant mixing. The extract was centrifuged at 4 °C, 14,000 g for 15 min. Enolase activity in E. coli native lysates was measured directly by the appearance of PEP from 2-PGA via absorption at 240 nm. The assay medium was the same, except that all the auxiliary reagents (PK/LDH, NADH, ADP) are omitted. […]

For assay [1], the system named is D423 ENO1-deleted glioma cells. Description: Proliferation assay of glioma cell lines by crystal violet staining. The class given is cell-based, human. The conditions noted are these: for toxicity against ENO1-deleted versus ENO1-intact glioma cells (in words): six days of treatment, D423 ENO1-deleted vs D423 ENO1-rescued and LN319 ENO1-WT. From the text: The cell line D423-MG was provided by Dr. Bigner. The 1p36 homozygous deletion in D423-MG spans from the CAMTA1 to SLC25A33 genes, including ENO1. The generation of isogenic ENO1 and ENO2 ectopically rescued lines was described previously. The LN319 cell line was obtained from Cell Bank of The Department of Genomic Medicine at M.D. Anderson. Cells were routinely cultured in high glucose, glutamine, and pyruvate containing Dulbecco’s modified Eagle’s medium (DMEM) with 10% fetal bovine serum (FBS).
Cell proliferation of glioma cell lines was assayed through crystal violet staining. Cells were seeded at 1500 cells/well in 96-well plates, and after 24 h, were treated with dilution series of enolase inhibitors, with each treatment concentration in duplicate wells. At the indicated time, cells were fixed with 10% formalin and stained with crystal violet. Dye extraction was performed using 10% acetic acid solution, and absorbance was read at 595 nm.

Assay [2] concerns the target T2, ENO2 (Homo sapiens, UniProt P09104). Description: X-ray structure of ENO2 crystals soaked with inhibitor. The class given is binding. On the set-up: His tag (only implied by NiNTA purification); made in house. Particulars: apo ENO2 crystals soaked with 2 mM compound; unbiased 2Fo-Fc omit map. The protocol: MethylSF2312 was co-crystallized with Human ENO2 to determine the configuration of the active compound in the active site. Apo crystals of ENO2 were prepared using published methods and were soaked in cryoprotectant containing the racemic mixture of MethylSF2312 for 16 h prior to freezing. The resulting co-crystal structure was resolved (Table 1), with four ENO2 homodimers in the asymmetric unit of the monoclinic crystal (PDB 5EU9).
Recombinant ENO2 protein was prepared using NiNTA affinity and size exclusion chromatography as described previously Apo crystals of Human Enolase 2 were prepared by streak seeding hanging drop solutions after mixing 0.5 μL 9.1 mg mL^−1 Enolase 2 with 0.5 μL reservoir solution (200 mM ammonium acetate, 100 mM Bis-Tris and 18–22% (w/v) PEG 3350). The hanging drops were incubated at room temperature above a 500 μL reservoir. Apo crystals were subsequently soaked overnight in 1 μL drops containing 100 mM Bis-Tis, 200 mM ammonium acetate, 32% (w/v) PEG 3350 at pH 6.5, supplemented with 2 mM racemate or pure enantiomer of MethylSF2312 compound, prior to flash freezing in liquid nitrogen. X-ray diffraction datasets were collected at 100 K using a wavelength of 1.11587 Å at the Advanced Light Source Beamline 8.3.1, equipped with ADSC Q315r detector. The diffraction images were indexed and integrated using iMOSFLM [19] and scaled using AIMLESS [20]. […]

In assay [3] the target is T2, ENO2. The experiment in a line: Enolase activity, NADH-linked PK/LDH coupled fluorometric assay in native lysates of human cancer cells overexpressing ENO2. Format: biochemical. More on the design: expressed in transfected cells; host or cells: D423-MG (ENO1-deleted human glioma) with ectopic ENO2. How it is done:
(§2) To compare the effects of isomeric mixtures of MethylSF2312 and SF2312 on Enolase activity, we measured the formation PEP coupled to the oxidation of NADH via LDH/PK on human cancer cells overexpressing ENO2 [4, 14]. […] Here, we favored the direct measurement of PEP absorbance, rather than of NADH, due to the high levels of endogenous NADH oxidase activity in bacterial lysates.
Native lysates of human cell lines were prepared using 20 mM Tris HCl, 1 mM EDTA, and 1 mM β-mercaptoethanol at pH 7.4 as described previously. Enolase activity was measured using two different methods, either by a fluorometric NADH-linked assay or a direct spectrophotometric assay via formation of PEP. In the fluorescent assay, enolase activity was measured via NADH oxidation in a pyruvate kinase–lactate dehydrogenase coupled assay as previously described. The assay is conducted in 10 mM KCl, 5 mM MgSO4, 100 mM triethanolamine at pH 7.4, with 400 µM NADH and 2 mM ADP. 2-Phosphoglycerate (2-PGA), pyruvate kinase (PK) and lactate dehydrogenase (LDH) are provided in excess, with the conversion of 2-PGA to PEP by enolase being rate limiting. PEP (with ADP) is a substrate of PK; pyruvate formed by this reaction is linked to NADH oxidation by LDH. Enolase activity is determined by measuring oxidation of NADH fluorescently by excitation at 340 nm and emission at 460 nm. The substrate concentration, if not otherwise indicated, was 5 mM 2-PGA. Fluorescence was measured using the Omega Fluorescence Plate Reader (BMG Labtech). Enolase activity was measured in native lysates of E. coli. Overnight grown saturated E. coli (DH5α) liquid culture was pelleted by centrifugation, washed and resuspended in 50 µL of lysis buffer which contains 150 mM NaCl, 50 mM Tris, 1mM EDTA, 2 mM DTT and 0.025% sodium azide. PMSF (10 mM stock solution) was then added to the lysate to make the final concentration 1 mM with 1% sodium deoxycholate. The suspension was incubated at 4 °C with constant mixing. The extract was centrifuged at 4 °C, 14,000 g for 15 min. Enolase activity in E. coli native lysates was measured directly by the appearance of PEP from 2-PGA via absorption at 240 nm. The assay medium was the same, except that all the auxiliary reagents (PK/LDH, NADH, ADP) are omitted. Assays were conducted in a 96-well plated format with the direct assay performed in UV-transmissible plates.

Assay [4] deals with T3, Enolase in Escherichia coli lysates (Escherichia coli, UniProt P0A6P9).
T3 construct: Overnight grown saturated E. coli (DH5α) liquid culture was pelleted by centrifugation; endogenous in cells; host or cells: E. coli DH5α
Description: Enolase activity in E. coli native lysates, direct measurement of PEP formation at 240 nm. The class given is biochemical. How it is done: as §2
as §1, with “The extract was centrifuged at 4 °C, 14,000 g for 15 min.” left out, “nm.” for “nm. The assay medium was the same, except that all the auxiliary reagents (PK/LDH, NADH, ADP) are omitted.”

The next assay has as its system E. coli (DH5α). The experiment in a line: Kirby Bauer disc diffusion antibiotic sensitivity testing. Format: cell-based, Escherichia coli. The conditions noted are these: for zone of inhibition at 35 µg/disc: Escherichia coli, read-out: clear zone of growth inhibition. The protocol:
Finally, the antibiotic activities of SF2312 and MethylSF2312 were compared in E. coli using the disc diffusion method. A 7 mm filter paper disc imbued with 35 µg of either SF2312 or MethylSF2312 was placed on an E. coli lawn on Muller-Hinton Agar. […] Of note, growth inhibition was only observed with the addition of glucose-6-phosphate (G6P).
Kirby Bauer disc diffusion antibiotic sensitivity testing was performed on Mueller Hinton II Agar (BD #221275) or BBL™ Columbia Agar with 5% Sheep Blood (BD #221165). An overnight overnight-grown saturated E. coli (DH5α) liquid culture was diluted (1:50) in water and streaked on the agar plate to form a bacterial lawn. D-Glucose-6-phosphate (Sigma #G7250) was made in 100 mM stock solution and added to the diluted bacteria to achieve 2 mM final concentration right before streaking the plate. A 7 mm Whatman™ 3MM Chr Chromatography filter paper disc (Whatman # 3030-6189) was imbued with 7 µL of an aqueous solution of inhibitor, placed on the streaked agar plate and incubated overnight at 37 °C.

Setting [5] is: lysates of human cancer cells (D423) overexpressing ENO2, 5 mM 2-PGA, read-out: IC50 for ENO2.

Like-named read-outs stand apart in the source and are kept apart here.

T2 sequence (P09104 whole entry): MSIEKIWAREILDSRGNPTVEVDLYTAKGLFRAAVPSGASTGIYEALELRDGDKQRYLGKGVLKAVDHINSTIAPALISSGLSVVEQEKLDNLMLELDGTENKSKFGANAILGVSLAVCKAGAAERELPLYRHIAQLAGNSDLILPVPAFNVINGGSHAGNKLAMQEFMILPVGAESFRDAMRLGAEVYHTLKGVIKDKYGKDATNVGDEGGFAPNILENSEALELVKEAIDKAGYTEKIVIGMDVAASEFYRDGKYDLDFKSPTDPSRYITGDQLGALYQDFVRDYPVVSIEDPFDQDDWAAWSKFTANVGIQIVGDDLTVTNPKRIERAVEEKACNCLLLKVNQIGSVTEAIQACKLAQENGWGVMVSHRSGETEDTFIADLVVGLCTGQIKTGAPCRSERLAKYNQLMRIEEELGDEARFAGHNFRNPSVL
T3 sequence (P0A6P9 whole entry): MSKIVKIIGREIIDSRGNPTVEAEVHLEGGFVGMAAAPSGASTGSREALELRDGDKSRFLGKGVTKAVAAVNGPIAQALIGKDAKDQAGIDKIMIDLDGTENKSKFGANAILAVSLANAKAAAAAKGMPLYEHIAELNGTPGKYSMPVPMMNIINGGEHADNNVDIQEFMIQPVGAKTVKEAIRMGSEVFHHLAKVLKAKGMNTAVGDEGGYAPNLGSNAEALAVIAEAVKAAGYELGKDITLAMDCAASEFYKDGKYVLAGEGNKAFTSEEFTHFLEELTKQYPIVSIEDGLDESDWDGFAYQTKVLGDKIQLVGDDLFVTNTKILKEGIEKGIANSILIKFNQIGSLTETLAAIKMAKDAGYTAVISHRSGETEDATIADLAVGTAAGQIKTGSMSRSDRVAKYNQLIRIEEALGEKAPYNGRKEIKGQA
T1 sequence (P06733 whole entry): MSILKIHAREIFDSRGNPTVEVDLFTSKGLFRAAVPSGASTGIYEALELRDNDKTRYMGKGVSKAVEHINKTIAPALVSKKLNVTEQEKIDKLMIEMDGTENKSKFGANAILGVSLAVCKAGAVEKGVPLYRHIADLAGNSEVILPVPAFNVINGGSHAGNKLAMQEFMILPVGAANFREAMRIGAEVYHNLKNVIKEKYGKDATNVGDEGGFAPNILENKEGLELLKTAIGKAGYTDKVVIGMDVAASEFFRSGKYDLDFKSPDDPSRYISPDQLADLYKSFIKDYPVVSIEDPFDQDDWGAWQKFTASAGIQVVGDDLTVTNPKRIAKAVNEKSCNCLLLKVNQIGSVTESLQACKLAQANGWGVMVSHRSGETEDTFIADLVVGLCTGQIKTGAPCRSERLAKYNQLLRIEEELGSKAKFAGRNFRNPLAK

`C[C@@]1(P(=O)(O)O)CC(O)N(O)C1=O` (stereo partly drawn) [(3R)-MethylSF2312]: the “fold less potent than (3S)-MethylSF2312” value at ENO1 (ENO1, ratio of IC50 values) stood at 2000 fold. For the same compound, the IC50 against ENO1 is approximately 15000 nM; on ENO2 [3] (lysates of D423 cells overexpressing ENO2, read-out: IC50 for ENO2), approximately 15000 nM. Also, in assay [1] (even at 400 µM, D423 ENO1-deleted, 7 days), the “toxicity towards ENO1-deleted glioma cells (in words)” value was “minimal toxicity”. The “occupancy of the ENO2 active site in the electron density map (in words)” value at ENO2 [2] is “no evidence of occupancy”.
Turning to `C[C@]1(P(=O)(O)O)CC(O)N(O)C1=O` (stereo partly drawn) [(3S)-MethylSF2312], the 50% inhibitory concentration (IC50) against ENO1 and on ENO2 [3] (setting [5]) was approximately 10 nM throughout. Also, the “fold greater Enolase inhibitory potency compared to (3R)-MethylSF2312” value in assay [4] (E. coli lysates) is listed as ~ 2000 fold. In addition, the “concentration exhibiting toxicity to ENO1-deleted glioma cells” value in assay [1] (D423 ENO1-deleted, 7 days, crystal violet) was ~ 2 µM. Also, the “zone of inhibition (in words)” value with E. coli (DH5α) (35 µg per disc, Muller Hinton Agar and Blood Agar, with G6P, overnight 37 °C) is recorded as “distinct zone of inhibition”. On ENO2 [2], the “occupancy of the ENO2 active site in the electron density map (in words)” value is reported as “occupied in 3S,5S-configuration”.
`CC1(P(=O)(O)O)CC(O)N(O)C1=O` (stereo not shown) [MethylSF2312, (1,5-dihydroxy-3-methyl-2-oxopyrrolidin-3-yl)phosphonic acid]: the concentration for half-maximal inhibition (IC50) in assay [4] (direct PEP absorbance at 240 nm, read-out: IC50, Enolase in E. coli lysates) is approximately 10 nM; at ENO2 [3] (setting [5]) it was approximately 10 nM. Further, the “toxicity against ENO1-deleted versus ENO1-intact glioma cells (in words)” value in assay [1] is on record as “selective toxicity”. Further, the zone of inhibition at 35 µg/disc with E. coli (DH5α) (7 mm disc with 35 µg, Muller-Hinton Agar, overnight, with glucose-6-phosphate) was approximately 24 mm.
On to `O=C1C(P(=O)(O)O)CC(O)N1O` (stereo not shown) [SF2312, (1,5-dihydroxy-2-oxopyrrolidin-3-yl)phosphonic acid], for which the IC50 (in assay [4]; against ENO2 [3]) was approximately 10 nM in each case. The “toxicity against ENO1-deleted versus ENO1-intact glioma cells (in words)” value in assay [1] is “selective toxicity”. Besides, the zone of inhibition at 35 µg/disc in the assay on E. coli (DH5α) was approximately 24 mm.
